{"source": "paper PMC3253716", "about": "(Journal of Enzyme Inhibition and Medicinal Chemistry, 2010)", "key": {"[1]": {"target": "T1, recombinant mouse acetylcholinesterase (rMAChE) (Mus musculus, UniProt P21836)", "T1 sequence (P21836 with tags, fused parts or gaps limits assumed)": "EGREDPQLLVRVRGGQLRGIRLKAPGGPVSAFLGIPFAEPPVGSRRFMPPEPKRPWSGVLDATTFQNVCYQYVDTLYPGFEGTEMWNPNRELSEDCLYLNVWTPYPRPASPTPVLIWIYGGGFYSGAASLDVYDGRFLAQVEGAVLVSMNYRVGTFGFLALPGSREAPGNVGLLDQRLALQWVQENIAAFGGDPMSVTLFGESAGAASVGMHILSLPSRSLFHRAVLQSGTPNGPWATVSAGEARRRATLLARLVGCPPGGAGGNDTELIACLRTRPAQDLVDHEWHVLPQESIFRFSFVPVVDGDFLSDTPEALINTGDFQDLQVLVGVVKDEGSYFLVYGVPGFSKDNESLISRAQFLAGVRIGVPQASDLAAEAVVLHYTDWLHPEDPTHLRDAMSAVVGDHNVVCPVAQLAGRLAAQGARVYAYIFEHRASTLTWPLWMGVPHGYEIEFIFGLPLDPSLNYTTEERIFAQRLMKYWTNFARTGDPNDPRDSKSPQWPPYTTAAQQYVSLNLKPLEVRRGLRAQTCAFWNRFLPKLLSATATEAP", "test": "Colorimetric", "assay_type": "biochemical", "details": "tested at 50 µM"}, "[2]": {"target": "electric eel acetylcholinesterase (EEAChE) (Electrophorus electricus, UniProt O42275)", "sequence (O42275 24-633)": "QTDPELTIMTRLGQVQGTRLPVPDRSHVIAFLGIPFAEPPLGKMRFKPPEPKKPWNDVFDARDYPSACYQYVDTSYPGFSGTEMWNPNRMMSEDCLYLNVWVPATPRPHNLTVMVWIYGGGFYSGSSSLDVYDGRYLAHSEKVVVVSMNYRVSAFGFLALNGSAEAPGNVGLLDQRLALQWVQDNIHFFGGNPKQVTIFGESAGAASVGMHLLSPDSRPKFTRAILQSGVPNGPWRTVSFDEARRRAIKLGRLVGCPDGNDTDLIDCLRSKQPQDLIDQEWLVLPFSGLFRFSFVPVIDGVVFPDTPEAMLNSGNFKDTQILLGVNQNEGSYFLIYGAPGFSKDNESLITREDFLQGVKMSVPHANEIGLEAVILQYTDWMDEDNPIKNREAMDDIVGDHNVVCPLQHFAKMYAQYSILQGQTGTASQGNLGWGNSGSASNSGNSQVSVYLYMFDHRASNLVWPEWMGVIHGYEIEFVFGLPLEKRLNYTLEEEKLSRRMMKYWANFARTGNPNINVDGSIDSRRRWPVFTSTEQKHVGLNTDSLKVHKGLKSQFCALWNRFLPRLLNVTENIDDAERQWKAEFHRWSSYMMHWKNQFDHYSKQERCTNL", "test": "Colorimetric", "assay_type": "biochemical", "details": "tested at 50 µM"}, "EEAChE [3]": {"target": "T2, EEAChE (Electrophorus electricus, UniProt O42275)", "T2 sequence (O42275 24-633)": "as above", "details": "Lineweaver–Burk plot"}, "EEAChE [4]": {"target": "T2, EEAChE", "details": "read-out: IC50 against EEAChE; competitive inhibition; cited from earlier work"}}, "note": "“Also recorded” adds a separate entry of the source.", "data": [{"compound": "9-[2(or 4)-[[[-[-N-Propynylsulfonamide]-4(or 2)-sulfophenyl]-2,3,6,7,12,13,16,17–octahydro-1H, 5H, 11H, 15H-xantheno[2,3,4-ij:5,6,7i′j′]-diquinolizium-18-inner salt [Compound 7]", "values": [{"measurement": "Inhibition of rMAChE (in words)", "setting": "[1]", "value": "reversibly inactivate"}, {"measurement": "Inhibition of rMAChE (in words)", "setting": "[1]; listed as Texas Red", "value": "inhibited"}, {"measurement": "Inhibition of EEAChE (in words)", "setting": "[2]", "value": "reversibly inactivate"}, {"measurement": "Inhibition of EEAChE (in words)", "setting": "[2]; listed as Texas Red", "value": "inhibited"}]}, {"compound": "C#CCNS(=O)(=O)c1ccc(N=Nc2ccc(N(C)C)cc2)cc1", "note": "[Compound 3, 4-(4-Dimethylamino-phenylazo)-N-prop-2-ynyl benzenosulfonamide]", "values": [{"measurement": "Inhibition of rMAChE (in words)", "setting": "[1]; listed as dabsyl", "value": "not inhibitors; also recorded: inactive"}, {"measurement": "Inhibition of EEAChE (in words)", "setting": "[2]; listed as dabsyl", "value": "not inhibitors; also recorded: inactive"}]}, {"compound": "C#CCNS(=O)(=O)c1ccc2ccc3cccc4ccc1c2c34", "note": "[Compound 2, 1-N-(-2-Propynyl)-pyrenesulfonamide]", "values": [{"measurement": "Inhibition of rMAChE (in words)", "setting": "[1]", "value": "inactive"}, {"measurement": "Inhibition of EEAChE (in words)", "setting": "[2]", "value": "inactive"}]}, {"compound": "Xanthylium, 9-[-2-sulfophenyl]-3,6-bis(diethylamino)-4-sulfonamide [Compound 6]", "values": [{"measurement": "Inhibition of rMAChE (in words)", "setting": "[1]", "value": "reversibly inactivate"}, {"measurement": "Inhibition of rMAChE (in words)", "setting": "[1]; listed as Lissamine", "value": "inhibited"}, {"measurement": "Inhibition of EEAChE (in words)", "setting": "[2]", "value": "reversibly inactivate"}, {"measurement": "Inhibition of EEAChE (in words)", "setting": "[2]; listed as Lissamine", "value": "inhibited"}, {"measurement": "Type of inhibition", "setting": "EEAChE [3]", "value": "mixed-type competitive and noncompetitive inhibition"}]}, {"compound": "C#CCNC(=O)c1cc2ccc(OC)cc2oc1=O", "note": "[Compound 5, 2H-1-Benzopyran-7-methoxy-2-oxo-3-N-propynylcarboxylamide]", "values": [{"measurement": "Inhibition of rMAChE (in words)", "setting": "[1]; listed as methoxycoumarin", "value": "not inhibitors; also recorded: inactive"}, {"measurement": "Inhibition of EEAChE (in words)", "setting": "[2]; listed as methoxycoumarin", "value": "not inhibitors; also recorded: inactive"}]}, {"compound": "c1cc2ccc3cccc4ccc(c1)c2c34", "note": "[pyrene]", "values": [{"measurement": "IC50", "setting": "EEAChE [4]", "value": 5.22, "unit": "µM"}]}, {"compound": "C#CCNC(=O)c1cc2ccc(N(CC)CC)cc2oc1=O", "note": "[Compound 4, 2H-1-Benzopyran-7-N-diethyl-2-oxo-3-propynylcarboxylamide]", "values": [{"measurement": "Inhibition of rMAChE (in words)", "setting": "[1]", "value": "inhibited"}, {"measurement": "Inhibition of rMAChE (in words)", "setting": "[1]; listed as diethylaminocoumarin", "value": "some inhibitory ability"}, {"measurement": "Inhibition of EEAChE (in words)", "setting": "[2]", "value": "not an inhibitor"}]}, {"compound": "C#CCNS(=O)(=O)c1cccc2c(N(C)C)cccc12", "note": "[Compound 1, 5-(Dimethylamino)-N-(-2-propynyl)-1-naphthalenesulfonamide]", "values": [{"measurement": "Inhibition of rMAChE (in words)", "setting": "[1]; listed as dansyl", "value": "not inhibitors; also recorded: inactive"}, {"measurement": "Inhibition of EEAChE (in words)", "setting": "[2]; listed as dansyl", "value": "not inhibitors; also recorded: inactive"}]}]}
